# ChEMBL document CHEMBL3044704, “Synthesis, characterization, antioxidant, and anticancer studies of 6-[3-(4-chlorophenyl)-1H-pyrazol-4-yl]-3-[(2-naphthyloxy)methyl][1,2,4]triazolo[3,4-b][1,3,4]thiadiazole in HepG2 cell lines” (Med Chem Res, 2011)
# Activity calls are given as the source filed them. No cut-off for these calls is given here.
# What was measured:
# HepG2 [1] = assay: Induction of cell cycle arrest in Homo sapiens (human) HepG2 cells assessed as subG1 phase cells at 0.08 ug/ml after 24 hr by flow cytometric analysis (reference value: 3.57 +/- 0.03%); format: functional
# HepG2 [2] = assay: Induction of cell cycle arrest in Homo sapiens (human) HepG2 cells assessed as increase in subG1 phase cells after 24 hr by flow cytometric analysis; format: functional, cell-based
# HepG2 [3] = assay: Induction of cell cycle arrest in Homo sapiens (human) HepG2 cells assessed as G2/M phase cells at 0.08 ug/ml after 24 hr by flow cytometric analysis (reference value: 12.92 +/- 0.27%); format: functional
# HepG2 [4] = assay: Induction of cell cycle arrest in Homo sapiens (human) HepG2 cells assessed as S phase cells at 0.08 ug/ml after 24 hr by flow cytometric analysis (reference value: 32.84 +/- 1.06%); format: functional
# HepG2 [5] = assay: Induction of cell cycle arrest in Homo sapiens (human) HepG2 cells assessed as G1 phase cells at 0.08 ug/ml after 24 hr by flow cytometric analysis (reference value: 50.68 +/- 1.42%); format: functional
# HepG2 [6] = assay: Induction of cell cycle arrest in Homo sapiens (human) HepG2 cells assessed as G2/M phase cells at 0.06 ug/ml after 24 hr by flow cytometric analysis (reference value: 12.92 +/- 0.27%); format: functional
# HepG2 [7] = assay: Induction of cell cycle arrest in Homo sapiens (human) HepG2 cells assessed as S phase cells at 0.06 ug/ml after 24 hr by flow cytometric analysis (reference value: 32.84 +/- 1.06%); format: functional
# HepG2 [8] = assay: Cytotoxicity against Homo sapiens (human) HepG2 cells after 24 hr by MTT assay; format: functional, cell-based; details: HepG2, 24 h
# HepG2 [9] = assay: Cytotoxicity against Homo sapiens (human) HepG2 cells assessed as inhibition of [3H]thymidine incorporation incubated for 3 hr prior to [3h]thymidine incorporation measured after 2 hr by liquid scintillation counting; format: functional, cell-based
# HepG2 [10] = assay: Induction of cell cycle arrest in Homo sapiens (human) HepG2 cells assessed as subG1 phase cells at 0.06 ug/ml after 24 hr by flow cytometric analysis (reference value: 3.57 +/- 0.03%); format: functional
# HepG2 [11] = assay: Induction of cell cycle arrest in Homo sapiens (human) HepG2 cells assessed as G1 phase cells at 0.06 ug/ml after 24 hr by flow cytometric analysis (reference value: 50.68 +/- 1.42%); format: functional
# [12] = Antioxidant activity assessed as inhibition of ABTS radical production after 20 min by spectrophotometric analysis; format: functional
# [13] = test system: Radical scavenging activity; assay: Antioxidant activity assessed as inhibition of DPPH radical production after 20 min by spectrophotometric analysis; format: functional
# HepG2 [14] = assay: Cytotoxicity against Homo sapiens (human) HepG2 cells assessed as chromatin condensation after 24 hr by Hoechst-staining method; format: functional, cell-based
IC50 [13] [mg/L],SMILES,Activity (HepG2 [1]) [%],Activity (HepG2 [2]),Activity (HepG2 [3]) [%],Activity (HepG2 [4]) [%],Activity (HepG2 [5]) [%],Activity (HepG2 [6]) [%],Activity (HepG2 [7]) [%],IC50 (HepG2 [8]) [mg/L],inhibition (HepG2 [9]),Activity (HepG2 [10]) [%],Activity (HepG2 [11]) [%],inhibition [12],Activity (HepG2 [14])
1.023,Clc1ccc(-c2n[nH]cc2-c2nn3c(COc4ccc5ccccc5c4)nnc3s2)cc1,12.33,Dose-dependent effect,11.33,23.68,52.65,10.58,28.82,0.8,Dose-dependent effect,4,56.59,Active,Dose-dependent effect
1.46,O=C1O[C@H]([C@@H](O)CO)C(O)=C1O [ASCORBIC ACID],–,–,–,–,–,–,–,–,–,–,–,Active,–
